Here are results for 47 molecules from patent US11286268B1, “EIF4E-inhibiting compounds and methods” (EFFECTOR THERAPEUTICS, INC., priority 2019, dated 2022).

Like-named read-outs stand apart in the source and are kept apart here. Bounds are passed on as bounds.

The target of the test is recombinant eIF4E (Homo sapiens (Human), UniProt P06730). As to the kind of experiment: Fluorescence polarization competition assay for eIF4E binding potency. The gist of the method:
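Competition of test compound against 20 nM EDA-m^7GDP-ATTO-550 for 75 nM recombinant eIF4E, pre-incubated 5 min, in 20 mM Tris pH 7.5, 100 mM NaCl, 1 mM DTT, 0.02% Tween-20, 1% DMSO. Equilibrated 30 min at room temperature, dark; fluorescence polarization read. IC50 from 8-point, 3-fold dilution series.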

Setting [1] is: fluorescence polarization competition, 75 nM recombinant eIF4E, 20 nM EDA-m7GDP-ATTO-550, IC50 class, read-out: elF4E FP.
Where [2] appears, read: inhibition of eIF4E/EDA-m7GDP-ATTO-550 binding by 50%, Table 4B calculated values, read-out: IC50.
[3] abbreviates: inhibition of eIF4E/EDA-m7GDP-ATTO-550 binding, calculated IC50 values, Table 4B, read-out: IC50.

Chain of recombinant eIF4E (P06730 whole entry): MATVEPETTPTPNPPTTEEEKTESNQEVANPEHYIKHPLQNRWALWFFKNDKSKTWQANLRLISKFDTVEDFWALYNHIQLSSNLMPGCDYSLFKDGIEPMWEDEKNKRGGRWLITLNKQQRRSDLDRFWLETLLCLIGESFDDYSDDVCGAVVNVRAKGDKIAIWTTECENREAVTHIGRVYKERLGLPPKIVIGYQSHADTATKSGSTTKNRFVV

In the case of `Cc1nc2c(-c3cncnc3)ccc(C#N)c2c(=O)n1CCOc1ccc(Cl)cc1-c1ccnc2c(C(=O)O)csc12` [compound 204], the IC50 reads like this: under setting [1], less than 0.05 µM; under setting [2], 0.0444 µM.

As to `Cc1nc2cnc(N(C)C3CCN(CC(F)(F)C(F)F)CC3)c(C#N)c2c(=O)n1CC#Cc1ccc(Cl)cc1-c1ccnc2c(C(=O)NS(C)(=O)=O)csc12` [compound 1703], the IC50 under setting [3] is 0.006 µM.

For `N#Cc1cc2c(=O)n(CCOc3ccc(Cl)cc3-c3ccc(OC(F)(F)F)c(C(=O)O)c3)cnc2cn1` [compound 113], the IC50 under setting [1] is 0.05 to 1 µM and the IC50 under setting [2] is 0.804 µM.

`Cc1nc2cc(C(F)(F)F)c(C3CCN(C)CC3)cc2c(=O)n1CCOc1ccc(Cl)cc1-c1ccnc2c(C(=O)O)csc12` [compound 881]: the IC50 was less than 0.05 µM under setting [1] and 0.0204 µM under setting [2].

Regarding `Cc1cc(-c2cc(Cl)ccc2OCCn2c(C)nc3cc(C(F)(F)F)c(N4CCSCC4)c(C#N)c3c2=O)c2scc(C(=O)O)c2n1` [compound 992], the IC50 reads like this: under setting [1], 0.05 to 1 µM; under setting [2], 0.0561 µM.

For `CCc1cc(-c2cc(Cl)ccc2OCCn2c(C)nc3cnc(CC)c(C#N)c3c2=O)c2scc(C(=O)O)c2n1` [compound 1062], the IC50 reads like this: under setting [1], less than 0.05 µM; under setting [2], 0.00663 µM.

Regarding `Cc1nc2cnc(N3CCN(CCCC(F)(F)F)CC3)c(C#N)c2c(=O)n1CCOc1ccc(Cl)cc1-c1ccnc2c(C(=O)O)csc12` [compound 844], the IC50 reads like this: under setting [1], less than 0.05 µM; under setting [2], 0.0233 µM.

Regarding `Cc1nc(N2CCN(CC(F)(F)F)CC2)c(C#N)c2c(=O)n(CCOc3ccc(Cl)cc3-c3ccnc4c(C(=O)O)csc34)c(C)nc12` [compound 886], the IC50 is less than 0.05 µM under setting [1] and 0.0105 µM under setting [2].

With `Cc1nc2cnc(N3CCN(C)C4(COC4)C3)c(C#N)c2c(=O)n1CCOc1ccc(Cl)cc1-c1ccnc2c(C(=O)O)csc12` [compound 1351], the IC50 under setting [3] is 0.016 µM.

Take `Cc1nc2cc(C(F)(F)F)c(CN(C)C)c(C#N)c2c(=O)n1CCOc1ccc(Cl)cc1-c1ccnc2ccsc12` [compound 2016]: the IC50 under setting [3] is 0.613 µM.

For `Cc1nc2cc(C(F)(F)F)cc(C#N)c2c(=O)n1CCOc1ccc(Cl)cc1-c1cc(CN(C)C)nc2c(C(=O)O)csc12` [compound 636], the IC50 runs as follows: under setting [1], less than 0.05 µM; under setting [2], 0.0332 µM.

For the molecule `Cc1nc2c(C3CCC(F)(F)CC3)ncc(C#N)c2c(=O)n1CCOc1ccc(Cl)cc1-c1ccnc2c(C(=O)O)csc12` [compound 284], the IC50 runs as follows: under setting [1], less than 0.05 µM; under setting [2], 0.0196 µM.

As for `CCc1cc(-c2cc(Cl)ccc2OCCn2c(C)nc3c(C)nc(-c4ccccc4)c(C#N)c3c2=O)c2scc(C(=O)O)c2n1` [compound 1015], the IC50 is less than 0.05 µM under setting [1] and 0.0197 µM under setting [2].

As to `Cc1nc2cncc(C#N)c2c(=O)n1C/C=C/c1ccc(Cl)cc1-c1cccc(C(=O)O)c1` [compound 44], the IC50 runs as follows: under setting [1], 0.05 to 1 µM; under setting [2], 0.0731 µM.

Consider `COC1CN(c2ncc3nc(C)n(CCOc4ccc(Cl)cc4-c4cc(C)nc5c(C(=O)O)csc45)c(=O)c3c2C#N)C1` [compound 1010], for which the IC50 runs as follows: under setting [1], less than 0.05 µM; under setting [2], 0.00529 µM.

In the case of `CCc1cc(-c2cc(Cl)ccc2OCCn2c(C)nc3cnc(N)c(C#N)c3c2=O)c2scc(C(=O)O)c2n1` [compound 1071], the IC50 under setting [1] lay in the range of 0.05 to 1 µM and the IC50 under setting [2] was 0.054 µM.

Consider `CC(=O)CN1CCC(N(C)c2ncc3nc(C)n(CC#Cc4ccc(Cl)cc4-c4ccnc5c(C(=O)O)csc45)c(=O)c3c2C#N)CC1` [compound 1519], for which the IC50 under setting [3] is 0.0153 µM.

In the case of `Cc1nc2cnc(N3CCN(C4(C)CC(F)(F)C4)CC3)c(C#N)c2c(=O)n1CC#Cc1ccc(Cl)cc1-c1ccnc2c(C(=O)O)csc12` [compound 1493], the IC50 under setting [3] is 0.00683 µM.

As to `Cc1nc2cc(C(F)(F)F)cc(C#N)c2c(=O)n1CCOc1ccc(Cl)cc1-c1cccc(C(=O)O)c1C#N` [compound 168], the IC50 by setting is: under setting [1], less than 0.05 µM; under setting [2], 0.0372 µM.

With `Cc1sc2c(-c3cc(Cl)ccc3OCCn3c(C)nc4c(C)c(C(F)(F)F)c(N5CCN(C)CC5)c(C#N)c4c3=O)ccnc2c1C(=O)O` [compound 1933], under setting [3], the IC50 is 0.0346 µM.

With `Cc1cc(-c2cc(Cl)ccc2OCCn2c(C)nc3cc(C(F)(F)F)cnc3c2=O)c2scc(C(=O)O)c2n1` [compound 337], the IC50 is less than 0.05 µM under setting [1] and 0.0257 µM under setting [2].

`N#Cc1cc(C(F)(F)F)cc2nc(O)n(CCOc3ccc(Cl)cc3-c3cccc(C(=O)O)c3)c(=O)c12` [compound 186]: the IC50 is 0.05 to 1 µM under setting [1] and 0.344 µM under setting [2].

Consider `Cc1nc2cnc(N3CC(N4CCC(F)(F)CC4)C3)c(C#N)c2c(=O)n1CCOc1ccc(Cl)cc1-c1ccnc2c(C(=O)O)csc12` [compound 1340], for which the IC50 under setting [3] was 0.0442 µM.

On to `Cc1nc2cc(C(F)(F)F)c(N3CCN(C)CC3)c(C#N)c2c(=O)n1CCOc1ccc(Cl)cc1-c1ccnc2c(C(=O)NS(C)(=O)=O)csc12` [compound 1151], for which the IC50 by setting is: under setting [1], less than 0.05 µM; under setting [2], 0.019 µM.

In the case of `N#Cc1cc2c(=O)n(CCOc3ccc(O)cc3-c3cccc(C(=O)O)c3)cnc2cn1` [compound 125], the IC50 is, setting by setting: under setting [1], greater than 1 µM; under setting [2], greater than 3 µM.

As for `Cc1nc2c(C#N)c(C(F)(F)F)cc(C#N)c2c(=O)n1CCOc1ccc(Cl)cc1-c1ccnc2c(C(=O)O)csc12` [compound 210], the IC50 under setting [1] lay within 0.05 to 1 µM and the IC50 under setting [2] was 0.091 µM.

Take `Cc1nc2cc(C(F)(F)F)cc(Cl)c2c(=O)n1CCOc1ccc(Cl)cc1-c1ccnc2c(C(=O)O)csc12` [compound 198]: the IC50 was 0.05 to 1 µM under setting [1] and 0.124 µM under setting [2].

On to `Cc1nc2cnc(N3CC4(C3)CN(C3CCC3)C4)c(C#N)c2c(=O)n1CCOc1ccc(Cl)cc1-c1ccnc2c(C(=O)NS(C)(=O)=O)csc12` [compound 1512], for which the IC50 under setting [3] was 0.0122 µM.

Regarding `Cc1nc2cc(C(F)(F)F)cc(C#N)c2c(=O)n1CCOc1ccc(Cl)cc1C1CCNC(C(=O)O)C1` (centres unmarked) [compound 535], the IC50 runs as follows: under setting [1], 0.05 to 1 µM; under setting [2], 0.244 µM.

On to `N#Cc1cccc2nc(C(F)F)n(CCOc3ccc(Cl)cc3-c3ccc(C(=O)O)c4cnsc34)c(=O)c12` [compound 190], for which the IC50 reads like this: under setting [1], 0.05 to 1 µM; under setting [2], 0.301 µM.

`Cc1cc(-c2cc(Cl)ccc2OCCn2c(C)nc3cc(C(F)(F)F)c(-c4nc(C)ncc4F)c(C#N)c3c2=O)c2scc(C(=O)O)c2n1` [compound 964]: the IC50 was less than 0.05 µM under setting [1] and 0.00332 µM under setting [2].

For `COC(=O)c1csc2c(-c3cc(Cl)ccc3C#CCn3c(C)nc4cnc(N5CCN(CCOC(F)(F)F)CC5)c(C#N)c4c3=O)ccnc12` [compound 1405], the IC50 under setting [3] was 0.631 µM.

Consider `C#Cc1c(C(=O)O)cccc1-c1cc(Cl)ccc1OCCn1c(C)nc2cc(C(F)(F)F)cc(C#N)c2c1=O` [compound 156], for which the IC50 is, setting by setting: under setting [1], less than 0.05 µM; under setting [2], 0.0042 µM.

Turning to `Cc1ncc(-c2cc(Cl)ccc2OCCn2c(C)nc3cnc(C4CC4)c(C#N)c3c2=O)c2scc(C(=O)O)c12` [compound 900], the IC50 was less than 0.05 µM under setting [1] and 0.0112 µM under setting [2].

In the case of `N#Cc1cc2c(=O)n(CCOc3ccc(Cl)cc3-c3cc(C(=O)O)c(F)c(F)c3F)cnc2cn1` [compound 101], the IC50 is greater than 1 µM under setting [1] and 43.8 µM under setting [2].

With `Cc1nc2c(c(=O)n1CC#Cc1ccc(Cl)cc1-c1ccnc3c(C(=O)NS(=O)(=O)CC(C)(C)C#N)csc13)C(C#N)=C(N(C)C1CCN(CC(F)(F)F)CC1)NC2` [compound 1672], the IC50 under setting [3] was 0.0132 µM.

For `O=C(O)c1cccc(-c2cc(Cl)ccc2OCCc2ccnc3nc(Nc4ccccc4)[nH]c(=O)c23)c1` [compound 176], the IC50 under setting [1] is less than 0.05 µM and the IC50 under setting [2] is 0.0415 µM.

Take `Cc1cc(-c2cc(Cl)ccc2OCCn2c(C)nc3cc(C(F)(F)F)c(-c4ccnc5c4CCN5)c(C#N)c3c2=O)c2scc(C(=O)O)c2n1` [compound 1192]: the IC50 by setting is: under setting [1], less than 0.05 µM; under setting [3], 0.0488 µM.

For `Cc1nc2cnc(N3CCN(C4CC(F)(F)C4)CC3)c(C#N)c2c(=O)n1CCOc1ccc(Cl)cc1-c1ccnc2c(C(=O)O)csc12` [compound 1307], the IC50 under setting [3] is 0.0542 µM.

Take `CC(C)(C#N)c1cc(C(=O)O)cc(-c2cc(Cl)ccc2OCCn2cnc3cnc(C#N)cc3c2=O)c1` [compound 110]: the IC50 under setting [1] is greater than 1 µM and the IC50 under setting [2] is 26.9 µM.

As to `Cc1nc2cc(S(=O)(=O)N(C)C)c(Cl)c(C#N)c2c(=O)n1CCOc1ccc(Cl)cc1-c1ccnc2c(C(=O)O)csc12` [compound 1948], the IC50 under setting [3] was 0.0356 µM.

On to `Cc1nc2cnc(N(C)C3CCN(C4(C(F)F)COC4)CC3)c(C#N)c2c(=O)n1CC#Cc1ccc(Cl)cc1-c1ccnc2c(C(=O)O)csc12` [compound 1182], for which the IC50 by setting is: under setting [1], less than 0.05 µM; under setting [2], 0.0136 µM.

Turning to `Cc1nc2cncc(Br)c2c(=O)n1CCOc1ccc(Cl)cc1-c1cccc(C(=O)O)c1` [compound 1999], the IC50 under setting [3] is 0.482 µM.

Take `Cc1nc2cnc(-c3ccc(CN(C)C)nc3)c(C#N)c2c(=O)n1CCOc1ccc(Cl)cc1-c1ccnc2c(C(=O)O)csc12` [compound 1325]: the IC50 under setting [3] was 0.0271 µM.

As for `Cc1nc2c(N3C4CCC3CN(C)C4)ncc(C#N)c2c(=O)n1CCOc1ccc(Cl)cc1-c1ccnc2c(C(=O)O)csc12` [compound 857], the IC50 was less than 0.05 µM under setting [1] and 0.00462 µM under setting [2].

As for `Cc1cc(-c2c(Cl)cc3nc(C)n(CCOc4ccc(Cl)cc4-c4cc(C)nc5c(C(=O)O)csc45)c(=O)c3c2C#N)cc(C)n1` [compound 396], the IC50 was less than 0.05 µM under setting [1] and 0.0181 µM under setting [2].

Regarding `COc1ncc(C#N)c2c(=O)n(CCOc3ccc(Cl)cc3-c3ccc(C)c4c(C(=O)O)csc34)c(C)nc12` [compound 726], the IC50 is, setting by setting: under setting [1], 0.05 to 1 µM; under setting [2], 0.053 µM.
